In US5334595A, “Pyrazoloquinolones as anticancer agents” (priority 1992, dated 1994):

Assay: In vivo antitumor assay, P388(iv)
Set-up: species or system mice
Details: mouse, in vivo, drug iv, qd 1-3, exp 1155A
From the text: Mice: Inbred: C3H/He and NCR-nu; and Hybrids: B6D2F1 (C57BL/6 females×DBA/2 males, CD2F1 (Balb/c females×DBS/2 males) and B6C3fl (C57BL/6×C3H) were bred at Wayne State University from strains obtained from the Frederick Cancer Research Facility, Frederick, Maryland or purchased from commercial suppliers.
Tumors: Murine Tumor: P388 and an adriamycin-resistant (ADR) subline P388/ADR leukemia and the following transplantable solid tumors of mice were used for in vivo testing: B16 melanoma (B16), pancreatic ductal adenocarcinoma No. 03 (Pane 03), colon adenocarcinoma No. 38 (colo 38), lung carcinoma No. 12 (LC 12), mammary ductal adenocarcinoma No. 16/C (Mam16C) and an adriamycin-resistant subline Mam16C/ADR. Human tumor: A single human tumor, mammary carcinoma MX-1 was used for in vivo testing. All tumors are in the Developmental Therapeutics Program frozen tumor respository, maintained by the Biological Testing Branch, Frederick Maryland. Each has a detailed description, code identification number, and list of references at the National Tumor Repository. Murine tumors were maintained in the mouse strain of origin and were transplanted in the appropriate F1 hydrid (or the strain of origin) for therapy trials. […]
Quantitative end points used to assess antitumor activity included % Increased Life Span (% ILS), Tumor Cell Kill (Log10 kill), and Tumor Growth Inhibition (T/C). […]
Endpoints were calculated as follows: [formula] where Dt is the median day of death for treated and Dc is the median day of death for control groups. […] Minimum quantitative activity limits for additional P388 models (e.g. P388/ADR and P388, IV) have not been defined. […]
The log10 cell kill was calculated from the following formula: [formula] where T-C is the tumor difference in the median day of death between the treated (T) and the control (C) groups and Td is the tumor doubling time (in days), the latter estimated from the best fit straight line from a log-linear growth plot of the control-group tumors in exponential growth. […]

Cc1cc(-c2c(F)cc3c4nn(CCN(C)C)c(=O)c-4cn(C4CC4)c3c2F)cc(C)n1.O=C(O)/C=C/C(=O)O [Example 1, 5-Cyclopropyl-6,8-difluoro-2,5-dihydro-2-[2-(dimethylamino)-ethyl]-7-(2,6-dimethyl-4-pyridinyl)-3H-pyrazolo[4,3-c]quinolin-3-one (E)-2-butendioate (1:1)]
MTD: 37 mg/kg
